Series [1] has as its system Sclerotinia sclerotiorum. Description: Sclerotinia sclerotiorum / liquid culture (cottony rot). In kind it is cell-based. The note with it: PDB potato dextrose broth, 24° C., 3-4 days after application, read-out: control of Sclerotinia sclerotiorum (inhibition of growth, photometrically). The protocol:
Sclerotinia Sclerotiorum/Liquid Culture (Cottony Rot) Mycelia fragments of a newly grown liquid culture of the fungus are directly mixed into nutrient broth (PDB potato dextrose broth). After placing a (DMSO) solution of test compound into a microtiter plate at an application rate 200 ppm (96-well format) the nutrient broth containing the fungal material is added. The test plates are incubated at 24° C. and the inhibition of growth is determined photometrically 3-4 days after application.

For series [2], the system named is Phytophthora infestans. Description: whole plant or invertebrate. Particulars: in Solanum lycopersicum, foliar, read-out: control of Phytophthora infestans (percent disease control compared to untreated). Format: in vivo.
Series [3] has as its system Thanatephorus cucumeris (Rhizoctonia solani). Description: Thanatephorus cucumeris (Rhizoctonia solani) / liquid culture (foot rot, damping-off). Format: cell-based. Particulars: PDB potato dextrose broth, 24° C., 3-4 days after application, read-out: control of Thanatephorus cucumeris (inhibition of growth, photometrically).
Series [4] relates to Magnaporthe grisea (Pyricularia oryzae). Description: whole plant or invertebrate. In kind it is in vivo. Particulars: foliar, read-out: control of Magnaporthe grisea (percent disease control compared to untreated).
Series [5] relates to Puccinia recondita f. sp. tritici. Description: Puccinia recondita f. sp. tritici / wheat / leaf disc preventative (brown rust). In kind it is in vivo. The note with it: foliar, wheat leaf segments cv Kanzler, inoculated 1 day after application, assessed 7-9 days after application, read-out: control of Puccinia recondita f. sp. tritici, preventative (percent disease control compared to untreated).

The test system of series [6] is Blumeria graminis f. sp. tritici (Erysiphe graminis f. sp. tritici). Description: Blumeria graminis f. sp. tritici / wheat / leaf disc preventative (powdery mildew on wheat). In kind it is in vivo. The note with it: foliar, wheat leaf segments cv. Kanzler, inoculated 1 day after application, assessed 6-8 days after application, read-out: control of Blumeria graminis (percent disease control compared to untreated).

Series [7] relates to Botryotinia fuckeliana (Botrytis cinerea). Description: Botryotinia fuckeliana (Botrytis cinerea) / liquid culture (gray mould). In kind it is cell-based. The note with it: Vogels broth, 24° C., 3-4 days after application, read-out: control of Botryotinia fuckeliana (inhibition of growth, photometrically).
For series [8], the system named is Plasmopara viticola. Description: whole plant or invertebrate. Format: in vivo. The note with it: foliar, read-out: control of Plasmopara viticola (percent disease control compared to untreated).
The test system of series [9] is Pyrenophora teres. As to the kind of experiment: Pyrenophora teres / barley / leaf disc preventative (net blotch). Format: in vivo. Particulars: foliar, barley leaf segments cv Hasso, inoculated two days after application, assessed 5-7 days after application, read-out: control of Pyrenophora teres (disease control compared to untreated). The method, boiled down: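 Barley cv Hasso leaf segments on agar sprayed with compound at 200 ppm, inoculated with spores two days later. Kept at 20 °C, 65% RH, 12/12 h light; disease control versus untreated scored 5-7 days after application.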

Series [10] has as its system Alternaria solani. Description: Alternaria solani / tomato / leaf disc (early blight). Format: in vivo. The note with it: foliar, tomato leaf disks cv. Baby, inoculated 2 days after application, assessed 5-7 days after application, read-out: control of Alternaria solani (percent disease control compared to untreated). On the procedure: Alternaria Solani/Tomato/Leaf Disc (Early Blight): Tomato leaf disks cv. Baby are placed on agar in multiwell plates (24-well format) and sprayed with the formulated test compound diluted in water at an application rate of 200 ppm. The leaf disks are inoculated with a spore suspension of the fungus 2 days after application. The inoculated leaf disks are incubated at 23° C./21° C.

The test system of series [11] is Pythium ultimum. As to the kind of experiment: Pythium ultimum / liquid culture (seedling damping off). In kind it is cell-based. The note with it: Globisporangium ultimum, PDB potato dextrose broth, 24° C., 2-3 days after application, read-out: control of Pythium ultimum (inhibition of growth, photometrically).
Series [12] has as its system Phaeosphaeria nodorum (Septoria nodorum). As to the kind of experiment: Phaeosphaeria nodorum (Septoria nodorum) / wheat / leaf disc preventative (glume blotch). In kind it is in vivo. The note with it: Parastagonospora nodorum, foliar, wheat leaf segments cv Kanzler, inoculated 2 days after application, assessed 5-7 days after application, read-out: control of Phaeosphaeria nodorum (percent disease control compared to untreated).

For series [13], the system named is Puccinia recondita f. sp. tritici. Description: Puccinia recondita f. sp. tritici / wheat / leaf disc curative (brown rust). Format: in vivo. The note with it: foliar, 200 ppm applied 1 day after inoculation, wheat leaf segments cv Kanzler, assessed 6-8 days after application, read-out: control of Puccinia recondita f. sp. tritici, curative (percent disease control compared to untreated). The protocol: Puccinia Recondita f. Sp. Tritici/Wheat/Leaf Disc Curative (Brown Rust): Wheat leaf segments cv Kanzler were placed on agar in 24-well plates. The leaf segments were inoculated with a spore suspension of the fungus. The plates were stored in darkness at 19° C. and 75% relative humidity. The formulated test compound diluted in water was applied at an application rate of 200 ppm 1 day after inoculation.

For the compound `Clc1ccc2c(n1)/C(=N/OCC1(CO/N=C3\CCc4ccc(Cl)nc43)CC1)CC2` [P.21], the melting point (usually the temperature, or range, at which the solid turns liquid) lay within 170 to 173 °C.

`c1ccc(-c2c3c(nc4ccccc24)/C(=N/OCCCO/N=C2\CCCc4c2nc2ccccc2c4-c2ccccc2)CCC3)cc1` [P.26] yielded a melting point of 205 to 210 °C.

`Cc1ccc2c(n1)/C(=N/OCC(C)(C)CO/N=C1\CCCc3c1nc1ccccc1c3C)CCC2` [P.38]: the inhibition at 200 ppm in [1], in [3], in [7] and in [11] was at least 80% throughout. The pest or weed control at 200 ppm in series [2], in series [4], in series [5], in [6], in series [8] and in [9] was at least 80% in each case. In addition, the pest or weed control at 200 ppm in series [10], in [12] and in series [13] was at least 80% throughout.

Take `Cc1ccc2c(n1)/C(=N/OCCCO/N=C1\CCCc3cc4c(nc31)CCCC4)CCC2` [P.39]: the inhibition at 200 ppm in series [1], in series [3], in series [7] and in [11] was at least 80% each time. Moreover, the pest or weed control at 200 ppm in [2], in series [4], in series [5], in [6], in series [8] and in [9] was at least 80% in each case. Besides, the pest or weed control at 200 ppm in series [10], in series [12] and in [13] was at least 80% each time.

(Values after patent publication US20140162980A1, “NOVEL MICROBIOCIDAL DIOXIME ETHER DERIVATIVES” (SYNGENTA CROP PROTECTION LLC, priority 2010, published 2014).)
